Test results from EP4763839A1 (Pamplona Therapeutics (Shenzhen) Co., Ltd., priority 2023, dated 2025).
pIC50: −log10 of the molar value.

target: T1, IRAK4 (Homo sapiens, UniProt Q9NWZ3); test: Assay for inhibitory effect of compound on IRAK4 kinase activity (KinEASE-STK S1 HTRF kit); format: biochemical; settings: not given
T1 sequence (Q9NWZ3 1-460): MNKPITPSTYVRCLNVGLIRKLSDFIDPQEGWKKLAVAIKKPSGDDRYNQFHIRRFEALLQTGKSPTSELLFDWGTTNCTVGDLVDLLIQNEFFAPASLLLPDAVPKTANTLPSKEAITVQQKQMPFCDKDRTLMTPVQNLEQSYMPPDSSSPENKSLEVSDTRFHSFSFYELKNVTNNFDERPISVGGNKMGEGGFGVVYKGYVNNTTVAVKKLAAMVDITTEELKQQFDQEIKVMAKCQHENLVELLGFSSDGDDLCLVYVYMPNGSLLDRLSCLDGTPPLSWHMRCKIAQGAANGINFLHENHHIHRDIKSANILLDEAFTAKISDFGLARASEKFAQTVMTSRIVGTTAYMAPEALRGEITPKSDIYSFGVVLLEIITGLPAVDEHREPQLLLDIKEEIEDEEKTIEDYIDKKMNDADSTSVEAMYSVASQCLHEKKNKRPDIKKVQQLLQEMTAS
Method: Example 1: Kinase activity assay
Assay for inhibitory effect of compound on IRAK4 kinase activity
The inhibitory effect of the compound on IRAK4 kinase activity was measured using the KinEASE-STK S1 serine/threonine kinase kit (Cisbio). The specific method was as follows: the compound was dissolved in dimethyl sulfoxide and then subjected to 3-fold serial dilution in dimethyl sulfoxide, yielding final test compound concentrations in the reaction system ranging from 5,000 nM to 0.0254 nM. The kinase at a final concentration of 8 nM was added, followed by incubation at rt for 15 minutes. Subsequently, biotinylated STK1 substrate at a final concentration of 400 nM and adenosine triphosphate (ATP) at a final concentration of 80 µM were sequentially added, and the mixture was incubated at 37°C for 90 minutes. Then, the reaction was terminated by adding an anti-phosphoserine/threonine antibody conjugated with a europium cryptate and streptavidin-conjugated XL665 to the reaction system. After incubation at rt for 1 hour, the fluorescence intensity at emission wavelengths of 620 nm and 665 nm for each well was measured using an EnVision microplate reader (PerkinElmer) in HTRF mode. The ratio value was calculated using the formula: Ratio = (665 nm/620 nm)×10^4 The inhibition rate of the compound at each concentration was calculated using the formula: Inhibition% = [1-(Signal sample-Signal min)/(Signal max-Signal min)]×100. Subsequently, the dose-response curve was fitted by nonlinear curve fitting of log concentration versus inhibition rate using Fit Modela (205) in XLfit to give the IC50 value of the compound for inhibition of protein activity.

Row | Compound | pIC50
1 | CS(=N)(=O)c1cn(-c2ccccc2)nc1NC(=O)c1cccc(C(F)(F)F)n1 (stereo not drawn) [Compound A60] | < 6.00

same assay, conditions: kinase 8 nM, ATP 80 µM, 37°C 90 minutes; read-out: IRAK4 HTRF IC50

Row | pIC50 | Compound
2 | 6.00 to 7.00 | O=C(Nc1cn(C2CCNC2)nc1C(=O)NC1CC1)c1cccc(-c2ccn[nH]2)n1 (stereo not drawn) [Compound A254, N-(3-(Cyclopropylcarbamoyl)-1-(pyrrolidin-3-yl)-1H-pyrazol-4-yl)-6-(1H-pyrazol-5-yl)picolinamide]
3 | > 7.00 | O=C(Nc1cn(C2CCC2)nc1C(F)F)c1cnn2ccc(-c3ccn[nH]3)nc12 [Compound A291, N-(1-cyclobutyl-3-(difluoromethyl)-1H-pyrazol-4-yl)-5-(1H-pyrazol-5-yl)pyrazolo[1,5-a]pyrimidine-3-carboxamide]
4 | < 6.00 | NC(=O)c1cc(-c2ccccc2)sc1NC(=O)c1cccc(C(F)(F)F)n1 [Compound A51]
5 | > 7.00 | CNC(=O)c1nn(-c2ccccc2)cc1NC(=O)c1cccc(-c2ccn[nH]2)n1 [Compound A246, N-(3-(Methylcarbamoyl)-1-phenyl-1H-pyrazol-4-yl)-6-(1H-pyrazol-5-yl)picolinamide]
6 | 6.00 to 7.00 | NC(=O)c1nn(C23CC(C2)C3)cc1NC(=O)c1cccc(C(F)(F)F)n1 [Compound A258]
7 | > 7.00 | COCc1ccc(-n2cc(NC(=O)c3cccc(C(F)(F)F)n3)c(C(N)=O)n2)cc1 [Compound A19]
8 | 6.00 to 7.00 | NC(=O)c1nn(C2CNC2)cc1NC(=O)c1cccc(C(F)(F)F)n1 [Compound A33]
9 | < 6.00 | NC(=O)c1nc(-c2ccccc2)sc1NC(=O)c1cccc(C(F)(F)F)n1 [Compound A56, 2-Phenyl-5-(6-(trifluoromethyl)picolinamido)thiazole-4-carboxamide]
10 | 6.00 to 7.00 | NC(=O)c1nn(C2CCC(N)CC2)cc1NC(=O)c1cccc(C(F)(F)F)n1 (stereo not drawn) [Compound A36]
11 | 6.00 to 7.00 | CC(F)(F)c1cccc(C(=O)Nc2cn(-c3ccccc3)nc2C(=O)NC2CC2)n1 [Compound A265, N-(3-(Cyclopropylcarbamoyl)-1-phenyl-1H-pyrazol-4-yl)-6-(1,1-difluoroethyl)picolinamide]
12 | 6.00 to 7.00 | NC(=O)c1nn(-c2ccccc2)cc1NC(=O)c1cccc(-c2cc[nH]c2)n1 [Compound A91]
13 | 6.00 to 7.00 | CS(=N)(=O)c1nn(-c2ccccc2)cc1NC(=O)c1cccc(-c2cc[nH]n2)n1 (stereo not drawn) [Compound A96, N-(3-(S-methylsulfonimidoyl)-1-phenyl-1H-pyrazol-4-yl)-6-(1H-pyrazol-3-yl)picolinamide]
14 | 6.00 to 7.00 | NC(=O)c1nn(-c2cccnc2)cc1NC(=O)c1cccc(C(F)(F)F)n1 [Compound A29]
15 | > 7.00 | NC(=O)c1nn(C2CC(N)C2)cc1NC(=O)c1cccc(C(F)(F)F)n1 (stereo not drawn) [Compound A32]
16 | 6.00 to 7.00 | CNc1ccc(-n2cc(NC(=O)c3cccc(C(F)(F)F)n3)c(C(N)=O)n2)cc1 [Compound A10]
17 | > 7.00 | O=C(Nc1cn(-c2ccc(N3CCNCC3)cc2)nc1C(F)F)c1cccc(C(F)(F)F)n1 [Compound A42]
18 | > 7.00 | O=C(Nc1cn(-c2ccccc2)nc1C(=O)NC1CC1)c1cccc(-c2ccn[nH]2)n1 [Compound A250, N-(3-(Cyclopropylcarbamoyl)-1-phenyl-1H-pyrazol-4-yl)-6-(1H-pyrazol-5-yl)picolinamide]
19 | < 6.00 | O=C(Nc1cn(-c2ccccc2)nc1C1CC1)c1cccc(C(F)(F)F)n1 [Compound A71, N-(3-cyclopropyl-1-phenyl-1H-pyrazol-4-yl)-6-(trifluoromethyl)picolinamide]
20 | > 7.00 | O=C(Nc1cn(-c2ccccc2)nc1C(F)F)c1cccc(-c2ccn[nH]2)n1 [Compound A239, N-(3-(Difluoromethyl)-1-phenyl-1H-pyrazol-4-yl)-6-(1H-pyrazol-5-yl)picolinamide]
21 | 6.00 to 7.00 | NC(=O)c1nn(-c2cncnc2)cc1NC(=O)c1cccc(C(F)(F)F)n1 [Compound A45]
22 | < 6.00 | NC(=O)c1cn(-c2ccccc2)nc1NC(=O)c1cccc(C(F)(F)F)n1 [Compound A4]

Row | pIC50 | Compound
23 | 6.00 to 7.00 | O=C(NC1CC1)c1nn(C2CCC2)cc1NC(=O)c1cnn2ccc(-c3cn[nH]c3)nc12 [Compound A287]
24 | > 7.00 | CNS(=O)(=O)c1nn(-c2ccccc2)cc1NC(=O)c1cccc(-c2ccn[nH]2)n1 [Compound A248, N-(3-(N-Methylsulfamoyl)-1-phenyl-1H-pyrazol-4-yl)-6-(1H-pyrazol-5-yl)picolinamide]
25 | > 7.00 | N#Cc1cnn2c(C(=O)Nc3cn(-c4ccccc4)nc3C(F)F)ccc2c1 [Compound A233, 3-Cyano-N-(3-(difluoromethyl)-1-phenyl-1H-pyrazol-4-yl)pyrrolo[1,2-b]pyridazine-7-carboxamide]
26 | 6.00 to 7.00 | CC(C)(C)OC(=O)N1CCC(n2cc(NC(=O)c3cccc(C(F)(F)F)n3)c(C(N)=O)n2)CC1 [Compound A1]
27 | > 7.00 | NC(=O)c1nn(-c2ccccc2)cc1NC(=O)c1cccc(-c2cn[nH]c2)n1 [Compound A89]
28 | > 7.00 | NCc1ccc(-n2cc(NC(=O)c3cccc(C(F)(F)F)n3)c(C(N)=O)n2)cc1 [Compound A20]
29 | > 7.00 | O=C(Nc1cn(-c2cccnc2)nc1C(=O)NC1CC1)c1cccc(-c2ccn[nH]2)n1 [Compound A257, N-(3-(Cyclopropylcarbamoyl)-1-(pyridin-3-yl)-1H-pyrazol-4-yl)-6-(1H-pyrazol-5-yl)picolinamide]
30 | > 7.00 | N#Cc1cnn2c(C(=O)Nc3cn(C4CC5(CCNCC5)C4)nc3C(F)F)ccc2c1 [Compound A229, 3-Cyano-N-(3-(difluoromethyl)-1-(7-azaspiro[3.5]nonan-2-yl)-1H-pyrazol-4-yl)pyrrolo[1,2-b]pyridazine-7-carboxamide]
31 | < 6.00 | O=C(Nc1cn(-c2ccccc2)nc1C1CCC1)c1cccc(C(F)(F)F)n1 [Compound A72, N-(3-cyclobutyl-1-phenyl-1H-pyrazol-4-yl)-6-(trifluoromethyl)picolinamide]
32 | > 7.00 | O=C(Nc1cn(-c2ccccc2)nc1C(=O)C(F)F)c1cccc(-c2ccn[nH]2)n1 [Compound A244, N-(3-(2,2-difluoroacetyl)-1-phenyl-1H-pyrazol-4-yl)-6-(1H-pyrazol-5-yl)picolinamide]
33 | 6.00 to 7.00 | CC(O)c1nn(-c2ccccc2)cc1NC(=O)c1cccc(C(F)(F)F)n1 (stereo not drawn) [Compound A75, N-(3-(1-hydroxyethyl)-1-phenyl-1H-pyrazol-4-yl)-6-(trifluoromethyl)picolinamide]
34 | > 7.00 | O=C(Nc1cn(C2CCC2)nc1C(=O)NC1CC1)c1cccc(-c2ccn[nH]2)n1 [Compound A252, N-(1-Cyclobutyl-3-(cyclopropylcarbamoyl)-1H-pyrazol-4-yl)-6-(1H-pyrazol-5-yl)picolinamide]
35 | > 7.00 | COc1nn(C2CCC2)cc1NC(=O)c1cnn2ccc(-c3ccn[nH]3)nc12 [Compound A288, N-(1-cyclobutyl-3-methoxy-1H-pyrazol-4-yl)-5-(1H-pyrazol-5-yl)pyrazolo[1,5-a]pyrimidine-3-carboxamide]
36 | 6.00 to 7.00 | COc1ccc(-n2cc(NC(=O)c3cccc(C(F)(F)F)n3)c(C(N)=O)n2)cc1 [Compound A7]
37 | > 7.00 | NC(=O)c1nn(C2CCC2)cc1NC(=O)c1cnn2ccc(-c3ccn[nH]3)nc12 [Compound A292, N-(3-Carbamoyl-1-cyclobutyl-1H-pyrazol-4-yl)-5-(1H-pyrazol-5-yl)pyrazolo[1,5-a]pyrimidine-3-carboxamide]
38 | 6.00 to 7.00 | O=C(Nc1cn(-c2ccccc2)nc1C(=O)CC(F)(F)F)c1cccc(-c2ccn[nH]2)n1 [Compound A236, N-(1-Phenyl-3-(3,3,3-trifluoropropanoyl)-1H-pyrazol-4-yl)-6-(1H-pyrazol-5-yl)picolinamide]
39 | > 7.00 | NC(=O)c1nn(-c2ccccc2)cc1NC(=O)c1cccc(C(F)(F)F)n1 [Compound A5]
40 | 6.00 to 7.00 | NC(=O)c1nn(C2CCC2)cc1NC(=O)c1ccn2ncc(-c3ccn[nH]3)c2n1 [Compound A280, N-(3-carbamoyl-1-cyclobutyl-1H-pyrazol-4-yl)-3-(1H-pyrazol-5-yl)pyrazolo[1,5-a]pyrimidine-5-carboxamide]
41 | 6.00 to 7.00 | NC(=O)c1nn(-c2ccccc2)cc1NC(=O)c1cccc(-c2nc[nH]n2)n1 [Compound A457, N-(3-Carbamoyl-1-phenyl-1H-pyrazol-4-yl)-6-(1H-1,2,4-triazol-3-yl)picolinamide]
42 | > 7.00 | CC(C)(O)c1nn(C2CC3(CCNCC3)C2)cc1NC(=O)c1ccc2cc(C#N)cnn12 [Compound A106, 3-Cyano-N-(3-(2-hydroxypropan-2-yl)-1-(7-azaspiro[3.5]nonan-2-yl)-1H-pyrazol-4-yl)pyrrolo[1,2-b]pyridazine-7-carboxamide]
